# Test results taken from patent US11433090B2, “mTOR-inhibitor-containing medicine for treating or preventing ophthalmic symptoms, disorders, or diseases, and application thereof” (The Doshisha, priority 2017, dated 2022).
# Assays:
# Type in all cases: cell-based, human
# iFECD = assay: Cell damage induced by TGF-β2 in iFECD, phase contrast microscopy; conditions: 3 pmol mTOR siRNA with Lipofectamine, then TGF-β2 10 ng/ml 24 h, FIG. 7
# Method: (§1) The medium was removed from a culture dish in which iFECDs were being cultured, and the cells were supplemented with 1×PBS (−) that was preheated to 37° C., and were washed. This was repeated twice. The cells were supplemented again with 1×PBS (−) and incubated for 3 minutes at 37° C. (5% CO2). After removing the PBS (−), the cells were supplemented with 0.05% Trypsin-EDTA (Nacalai Tesque, 32778-34) and incubated for 5 minutes at 37° C. (5% CO2). The cells were then suspended in a medium, and collected by centrifugation at 1500 rpm for 3 minutes. DMEM (Nacalai Tesque, 08456-36)+10% FBS (Biowest, S1820-500)+1% P/S (Nacalai Tesque, 26252-94) was used as the medium.
# iFECDs were seeded on a 12-well plate at a ratio of 1×10^5 cells per well and cultured for 24 hours at 37° C. (5% CO2) (DMEM+10% FBS+1% P/S was used as the medium). After 24 hours, the medium was removed. Rapamycin was added to culture the cells for 24 hours. (DMEM+2% FBS+1% P/S was used as the medium). After 24 hours, the medium was removed. A medium containing 10 ng/ml of Recombinant Human TGF-β2 (Wako, 200-19911) and rapamycin was added to culture the cells for 24 hours. (DMEM+2% FBS+1% P/S was used as the medium). After 24 hours, the cell morphology and apoptosis were observed under a phase contrast microscope.
# iFECDs were seeded on a 12-well plate at a ratio of 3×10^4 cells per well and cultured for 24 hours at 37° C. […]
# mTOR [1] = assay: mTOR expression at RNA level in iFECD (PCR, agarose gel electrophoresis); conditions: 3 pmol mTOR siRNA, FIG. 6
# Method: as §1
# iFECDs were seeded on a 12-well plate at a ratio of 3×10^4 cells per well and cultured for 24 hours at 37° C. (5% CO2) (medium: DMEM+10% FBS+1% P/S). After 24 hours, the medium was removed. Lipofectamine (invitrogen, 92008) and 3 pmol of mTOR siRNA (Ambion, AS026M0L) were added to culture the cells for 24 hours (medium: OptiMEM-I (invitrogen, 31985-088)). The mTOR siRNA that was used has a sense strand set forth in SEQ ID NO: 1 and an antisense strand set forth in SEQ ID NO: 2. After 24 hours, the medium was removed to culture the cells for 72 hours at 37° C. (5% CO2) (medium: DMEM+10% FBS+1% P/S). After 72 hours, the medium was removed. […]
# mTOR [2] = assay: mTOR expression at protein level in iFECD (western blot); conditions: 3 pmol mTOR siRNA, FIG. 6
# Method: as §1
# iFECDs were seeded on a 12-well plate at a ratio of 3×10^4 cells per well and cultured for 24 hours at 37° C. (5% CO2) (medium: DMEM+10% FBS+1% P/S). After 24 hours, the medium was removed. Lipofectamine (invitrogen, 92008) and 3 pmol of mTOR siRNA (Ambion, AS026M0L) were added to culture the cells for 24 hours (medium: OptiMEM-I (invitrogen, 31985-088)). The mTOR siRNA that was used has a sense strand set forth in SEQ ID NO: 1 and an antisense strand set forth in SEQ ID NO: 2. […]
# 5 μg of the extracted protein was separated by SDS-PAGE and transferred onto a nitrocellulose membrane. […] The detected band strength was analyzed with a lumino image analyzer LAS-4000 mini (Fuji Film) and ImageQuant™ software (GE Healthcare).
substance,measurement,setting,value
"mTOR siRNA: siRNA against mTOR gene (Ambion, AS026M0L); sense strand SEQ ID NO: 1, antisense strand SEQ ID NO: 2 (sense CAUUCGCAUUCAGUCCAUATT; antisense UAUGGACUGAAUGCGAAUGAT; chemistry not given here)",damage to corneal endothelial cells induced by Recombinant Human TGF-β2,iFECD,suppressed
same,"mTOR expression, RNA level (PCR)",mTOR [1],suppression was found
same,"mTOR expression, protein level (western blot)",mTOR [2],suppression was found
